Test results as given in PubChem BioAssay (NCI).
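All cell lines were grown in 96-well plates and treated with compound for 48 hours. GI50: concentration for 50% inhibition of growth. Definition used: TGI = concentration required for complete inhibition of growth.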

Tests used:
Assay in all cases: inhibition of tumour cell growth, NCI panel, 48 h
[1] = tested on: RXF 393 renal
[2] = tested on: EKVX NSCLC
[3] = tested on: M14 melanoma
[4] = tested on: HOP-92 NSCLC
[5] = tested on: KM12 colon
[6] = tested on: 786-0 renal
[7] = tested on: SF-295 CNS
[8] = tested on: HT29 colon
[9] = tested on: HL-60(TB) leukemia
[10] = tested on: UACC-62 melanoma
[11] = tested on: OVCAR-3 ovarian
[12] = tested on: HCT-15 colon
[13] = tested on: UO-31 renal
[14] = tested on: HCT-116 colon
[15] = tested on: SF-539 CNS
[16] = tested on: SNB-75 CNS
[17] = tested on: SK-MEL-28 melanoma
[18] = tested on: SW-620 colon
[19] = tested on: SN12C renal
[20] = tested on: SF-268 CNS
[21] = tested on: SK-MEL-2 melanoma
[22] = tested on: CAKI-1 renal
[23] = tested on: PC-3 prostate
[24] = tested on: MDA-MB-231 breast
[25] = tested on: OVCAR-4 ovarian
[26] = tested on: HS 578T breast
[27] = tested on: ACHN renal
[28] = tested on: NCI-H23 lung
[29] = tested on: CCRF-CEM leukemia
[30] = tested on: IGROV1 ovarian
[31] = tested on: A549 NSCLC
[32] = tested on: OVCAR-8 ovarian
[33] = tested on: MCF7 breast
[34] = tested on: HCC-2998 colon
[35] = tested on: SK-MEL-5 melanoma
[36] = tested on: UACC-257 melanoma
[37] = tested on: DU-145 prostate
[38] = tested on: RPMI-8226 leukemia
[39] = tested on: SNB-19 CNS
[40] = tested on: OVCAR-5 ovarian
[41] = tested on: NCI-H522 lung
[42] = tested on: BT-549 breast
[43] = tested on: SK-OV-3 ovarian
[44] = tested on: HOP-62 NSCLC
[45] = tested on: NCI-H460 lung
[46] = tested on: U251 CNS
[47] = tested on: A498 renal
[48] = tested on: MDA-MB-435
[49] = tested on: MALME-3M melanoma
[50] = tested on: NCI/ADR-RES ovarian
[51] = tested on: K-562 leukemia
[52] = tested on: TK-10 renal
[53] = tested on: LOX IMVI melanoma
[54] = tested on: NCI-H226 lung
[55] = tested on: T-47D breast
[56] = tested on: COLO 205 colon
[57] = tested on: MOLT-4 leukemia
[58] = tested on: SR leukemia

Q: How did the GI50 [1] turn out when `CC1(C)[C@@H](OC(=O)CCC(=O)O)CC[C@]2(C)[C@H]3C(=O)C=C4[C@@H]5C[C@@](C)(C(=O)O)CC[C@]5(C)CC[C@@]4(C)[C@]3(C)CC[C@@H]12` was run?
A: 50.5 µM

Q: What about the TGI [1] of the same compound?
A: 66 µM

Q: And the GI50 [2]?
A: 52.9 µM

Q: And the TGI [2]?
A: 84.8 µM

Q: And the GI50 [3]?
A: 58.4 µM

Q: And the TGI [3]?
A: 129 µM

Q: And the GI50 [4]?
A: 58.6 µM

Q: And the TGI [4]?
A: 87.2 µM

Q: What about the GI50 [5] of the same compound?
A: 54.9 µM

Q: What about the TGI [5] of the same compound?
A: 84.1 µM

Q: What about the GI50 [6] of the same compound?
A: 58.8 µM

Q: And the TGI [6]?
A: 104 µM

Q: What about the GI50 [7] of the same compound?
A: 48.7 µM

Q: And the TGI [7]?
A: 65 µM

Q: And the GI50 [8]?
A: 56.1 µM

Q: And the TGI [8]?
A: 130 µM

Q: What about the GI50 [9] of the same compound?
A: 54.6 µM

Q: What about the TGI [9] of the same compound?
A: 73.6 µM

Q: What about the GI50 [10] of the same compound?
A: 48.1 µM

Q: And the TGI [10]?
A: 60.6 µM

Q: And the GI50 [11]?
A: 50.4 µM

Q: What about the TGI [11] of the same compound?
A: 62.9 µM

Q: What about the GI50 [12] of the same compound?
A: 51.1 µM

Q: And the TGI [12]?
A: 78.7 µM

Q: And the GI50 [13]?
A: 60.1 µM

Q: What about the TGI [13] of the same compound?
A: 81.6 µM

Q: And the GI50 [14]?
A: 51.8 µM

Q: What about the TGI [14] of the same compound?
A: 75.6 µM

Q: What about the GI50 [15] of the same compound?
A: 53.1 µM

Q: And the TGI [15]?
A: 76.7 µM

Q: What about the GI50 [16] of the same compound?
A: 55 µM

Q: What about the TGI [16] of the same compound?
A: 83.5 µM

Q: What about the GI50 [17] of the same compound?
A: 57.5 µM

Q: What about the TGI [17] of the same compound?
A: 85.4 µM

Q: What about the GI50 [18] of the same compound?
A: 59.2 µM

Q: And the TGI [18]?
A: 126 µM

Q: And the GI50 [19]?
A: 51.9 µM

Q: And the TGI [19]?
A: 105 µM

Q: What about the GI50 [20] of the same compound?
A: 55.7 µM

Q: What about the TGI [20] of the same compound?
A: 143 µM

Q: What about the GI50 [21] of the same compound?
A: 52.1 µM

Q: And the TGI [21]?
A: 67.9 µM

Q: What about the GI50 [22] of the same compound?
A: 61.6 µM

Q: And the TGI [22]?
A: 157 µM

Q: What about the GI50 [23] of the same compound?
A: 56 µM

Q: What about the TGI [23] of the same compound?
A: 127 µM

Q: And the GI50 [24]?
A: 78.8 µM

Q: And the TGI [24]?
A: 171 µM

Q: What about the GI50 [25] of the same compound?
A: 64.6 µM

Q: What about the TGI [25] of the same compound?
A: 168 µM

Q: What about the GI50 [26] of the same compound?
A: 49.6 µM

Q: And the TGI [26]?
A: 253 µM

Q: And the GI50 [27]?
A: 63 µM

Q: And the TGI [27]?
A: 114 µM

Q: What about the GI50 [28] of the same compound?
A: 60.1 µM

Q: What about the TGI [28] of the same compound?
A: 115 µM

Q: What about the GI50 [29] of the same compound?
A: 52.4 µM

Q: And the TGI [29]?
A: 78.3 µM

Q: And the GI50 [30]?
A: 55.8 µM

Q: And the TGI [30]?
A: 100 µM

Q: And the GI50 [31]?
A: 61 µM

Q: What about the TGI [31] of the same compound?
A: 130 µM

Q: What about the GI50 [32] of the same compound?
A: 59.1 µM

Q: And the TGI [32]?
A: 154 µM

Q: And the GI50 [33]?
A: 54.7 µM

Q: What about the TGI [33] of the same compound?
A: 136 µM

Q: And the GI50 [34]?
A: 56.1 µM

Q: What about the TGI [34] of the same compound?
A: 80.5 µM

Q: And the GI50 [35]?
A: 56 µM

Q: What about the TGI [35] of the same compound?
A: 86.8 µM

Q: And the GI50 [36]?
A: 66.2 µM

Q: And the TGI [36]?
A: 91.4 µM

Q: What about the GI50 [37] of the same compound?
A: 58.3 µM

Q: And the TGI [37]?
A: 142 µM

Q: And the GI50 [38]?
A: 50.9 µM

Q: And the TGI [38]?
A: 69.9 µM

Q: What about the GI50 [39] of the same compound?
A: 55 µM

Q: What about the TGI [39] of the same compound?
A: 141 µM

Q: What about the GI50 [40] of the same compound?
A: 83.2 µM

Q: And the TGI [40]?
A: 125 µM

Q: And the GI50 [41]?
A: 51.1 µM

Q: And the TGI [41]?
A: 80.7 µM

Q: What about the GI50 [42] of the same compound?
A: 51.1 µM

Q: What about the TGI [42] of the same compound?
A: 83.3 µM

Q: And the GI50 [43]?
A: 59.4 µM

Q: What about the TGI [43] of the same compound?
A: 127 µM

Q: What about the GI50 [44] of the same compound?
A: 53.9 µM

Q: And the TGI [44]?
A: 79.5 µM

Q: And the GI50 [45]?
A: 52.6 µM

Q: What about the TGI [45] of the same compound?
A: 76 µM

Q: And the GI50 [46]?
A: 53.2 µM

Q: What about the TGI [46] of the same compound?
A: 77.4 µM

Q: What about the GI50 [47] of the same compound?
A: 49.2 µM

Q: And the TGI [47]?
A: 68 µM

Q: And the GI50 [48]?
A: 58.2 µM

Q: And the TGI [48]?
A: 98.8 µM

Q: And the GI50 [49]?
A: 90.8 µM

Q: And the TGI [49]?
A: 128 µM

Q: And the GI50 [50]?
A: 81.2 µM

Q: What about the TGI [50] of the same compound?
A: 146 µM

Q: And the GI50 [51]?
A: 56.2 µM

Q: What about the TGI [51] of the same compound?
A: 230 µM

Q: What about the GI50 [52] of the same compound?
A: 65.6 µM

Q: And the TGI [52]?
A: 124 µM

Q: Which TGI [1] does the source give for `CN1CCC2(CC1)C(=NC1CCCCC1)NC(=S)N2c1ccccc1` here?
A: > 100 µM

Q: And the TGI [2]?
A: > 100 µM

Q: And the TGI [3]?
A: > 100 µM

Q: And the TGI [4]?
A: > 100 µM

Q: And the TGI [5]?
A: > 100 µM

Q: What about the TGI [6] of the same compound?
A: > 100 µM

Q: And the TGI [7]?
A: > 100 µM

Q: What about the TGI [8] of the same compound?
A: > 100 µM

Q: What about the TGI [9] of the same compound?
A: > 100 µM

Q: And the TGI [10]?
A: > 100 µM

Q: What about the TGI [12] of the same compound?
A: > 100 µM

Q: What about the TGI [13] of the same compound?
A: > 100 µM

Q: What about the TGI [14] of the same compound?
A: > 100 µM

Q: What about the TGI [15] of the same compound?
A: > 100 µM

Q: What about the TGI [16] of the same compound?
A: > 100 µM

Q: And the TGI [17]?
A: > 100 µM

Q: What about the TGI [18] of the same compound?
A: > 100 µM

Q: And the TGI [53]?
A: > 100 µM

Q: And the TGI [19]?
A: > 100 µM

Q: And the TGI [20]?
A: > 100 µM

Q: What about the TGI [54] of the same compound?
A: > 100 µM

Q: And the TGI [55]?
A: > 100 µM

Q: What about the TGI [24] of the same compound?
A: > 100 µM

Q: What about the TGI [25] of the same compound?
A: > 100 µM

Q: And the TGI [26]?
A: 88.3 µM

Q: What about the TGI [27] of the same compound?
A: > 100 µM

Q: What about the TGI [28] of the same compound?
A: > 100 µM

Q: What about the TGI [29] of the same compound?
A: > 100 µM

Q: What about the TGI [30] of the same compound?
A: > 100 µM

Q: What about the TGI [31] of the same compound?
A: > 100 µM

Q: What about the TGI [32] of the same compound?
A: > 100 µM

Q: What about the TGI [33] of the same compound?
A: > 100 µM

Q: What about the TGI [34] of the same compound?
A: > 100 µM

Q: What about the TGI [35] of the same compound?
A: > 100 µM

Q: And the TGI [56]?
A: > 100 µM

Q: What about the TGI [36] of the same compound?
A: > 100 µM

Q: What about the TGI [37] of the same compound?
A: > 100 µM

Q: What about the TGI [57] of the same compound?
A: > 100 µM

Q: And the TGI [38]?
A: > 100 µM

Q: And the TGI [58]?
A: > 100 µM

Q: What about the TGI [39] of the same compound?
A: > 100 µM

Q: What about the TGI [40] of the same compound?
A: > 100 µM

Q: What about the TGI [43] of the same compound?
A: > 100 µM

Q: And the TGI [44]?
A: > 100 µM

Q: And the TGI [45]?
A: > 100 µM

Q: What about the TGI [46] of the same compound?
A: > 100 µM

Q: And the TGI [47]?
A: > 100 µM

Q: What about the TGI [48] of the same compound?
A: > 100 µM

Q: And the TGI [49]?
A: > 100 µM

Q: And the TGI [50]?
A: > 100 µM

Q: What about the TGI [51] of the same compound?
A: > 100 µM

Q: And the TGI [52]?
A: > 100 µM
